The values below come from patent publication EP0615449B1, “USE OF FLAVINE DERIVATIVES IN THE PRODUCTION OF MEDICO-SURGICAL SANITARY ARTICLES AND SANITARY ARTICLES SO OBTAINED” (BERQUE, Jean, priority 1992, dated 1994).

The conditions of series [1]: vulcanisation à chaud du latex; cited from earlier work.
The nature of series [2]: Cytotoxicity observed in the in vitro tests of FAD. The class given is cell-based.
Series [3] has as its system HIV. The experiment in a line: In vitro antiviral tests of FAD compared with AZT and DDI. The class given is cell-based.
A further series deals with VIH. The conditions noted are these: cited from earlier work.
The next series concerns rougeole. The conditions noted are these: traitement par la vitamine A, AFRIQUE DU SUD; cited from earlier work.
A further series relates to Herpès génital. The experiment in a line: Clinical observation, intravenous vitamin B2 in a patient with recurrent genital herpes. The conditions noted are these: récurrence importante d'un Herpès génital; voie intra-veineuse, injection unique de 20 mg par jour. The class given is in vivo. From the text: (§1) L'idée de départ découlait donc de constatations expérimentales concernant la photosynthèse protéique à l'échelle animale et la photosynthèse virale. On a donc utilisé initialement la vitamine B2 en fonction de ses propriétés d'absorption de la lumière avec l'idée d'interposer un écran photoprotecteur entre le rayonnement solaire UV parvenant à l'organisme et les virus HIV et HSV dont les patients étaient porteurs. Ce concept a été formulé dans le but d'"éteindre" ces virus dont il semblait, en fonction des hypothèses émises, que le rayonnement ultra-violet activait tant leur synthèse que leur replication. Les effets cliniques spectaculaires et très rapidement obtenus ont confirmé l'hypothèse de départ. C'est par la suite que le Demandeur s'est rendu compte qu'outre les propriétés photoprotectrices de la vitamine B2, la formule biochimique diphosphonucléotidique de son métabolite actif, le FAD, jouait également un rôle important.

Series [4] concerns cellules CEM-SS infectées par HIV1. The experiment in a line: In vitro anti-viral test on HIV1-infected CEM-SS cells (Institut de Virologie, Strasbourg), read out as reverse transcriptase inhibition. Particulars: dilution au 1/5000è. Type of series: cell-based. An excerpt: Début 1992, un test "in vitro" a été effectué par l'Institut de Virologie de la Faculté de Strasbourg. Le test est positif à la dilution au 1/5000è sur les cellules CEM-SS infectées par HIV1; l'effet anti-viral est objectivé par une inhibition de la transcriptase reverse supérieure à 50%.

Series [5] relates to HIV. The experiment in a line: Clinical observation, intravenous vitamin B2 in an AIDS patient (stage IV). The class given is in vivo. The conditions noted are these: malade sidéen stade IV; voie intra-veineuse, injection unique de 20 mg par jour.
Description: as §1

For series [6] the following is noted: lait exposé à la lumière, même dans un emballage transparent; cited from earlier work.

Consider `Cc1cc2nc3c(=O)[nH]c(=O)nc-3n(C[C@H](O)[C@H](O)[C@H](O)COP(=O)(O)OP(=O)(O)OC[C@H]3O[C@@H](n4cnc5c(N)ncnc54)[C@H](O)[C@@H]3O)c2cc1C` [FAD, flavine -adenine dinucleotide], for which the stabilité thermique entry in series [1] is “thermostables”. The cyto-toxicité result in series [2] is recorded as “sans aucune cyto-toxicité”. In addition, the activité in vitro result in the series with HIV [3] is given as “aussi actif in vitro que l'AZT et plus actif que le DDI”.

Turning to `C=CC1=C(C)c2cc3[n-]c(cc4[n-]c(cc5nc(cc1n2)C(C)=C5C=C)c(C)c4CCC(=O)O)c(CCC(=O)O)c3C.[Fe+2]` [Hème], the “activité anti-VIH in vitro” value in the series on VIH was “exerce une activité anti-VIH in vitro”.

As to `N[C@@H](CCC(=O)N[C@@H](CS)C(=O)NCC(=O)O)C(=O)O` [glutathion], the “activité anti-VIH in vitro” value in the series with VIH was “exerce une activité anti-VIH in vitro”.

As for `CC1=C(/C=C/C(C)=C/C=C/C(C)=C/CO)C(C)(C)CCC1` [vitamine A], the “amélioration de la rougeole” value with rougeole is “amélioration notable”.

For the molecule `Cc1cc2nc3c(=O)[nH]c(=O)nc-3n(C[C@H](O)[C@H](O)[C@H](O)CO)c2cc1C` [vitamine B2, Riboflavine], the effets cliniques result in the series with Herpès génital is “résultats spectaculaires”. For the same molecule, in series [4], the “inhibition de la transcriptase reverse” value is above 50% and the “test "in vitro" (effet anti-viral)” value is listed as “positif”. For the same molecule, in the series on HIV [5], the effets cliniques result was “résultats spectaculaires”. For the same molecule, the “Riboflavine détruite” value in series [6] is reported as 85%.

As to acides biliaires, the “activité anti-VIH in vitro” value with VIH was “actifs in vitro sur le VIH”.
